Data published in patent US12161754B2, “Abuse deterrent morphine sulfate dosage forms” (Purdue Pharma L.P., priority 2017, dated 2024).
Counter-ions that a name gives are not always drawn.

Experiment: Simulated smoking tests (Example 14)
Conditions: API alkalinized with excess NaOH, heated with a Sterno burner for 15 minutes

With `CN1CC[C@]23c4c5ccc(O)c4O[C@H]2[C@@H](O)C=C[C@H]3[C@H]1C5` [Morphine sulfate pentahydrate, morphine hemi(sulfate pentahydrate)] the API volatilized was “about 21%”.
